Measurements as given in patent US20120264685A1 (priority 2009, published 2012).
Where a SMILES comes first, the peptide text is derived from it. [ ]: non-standard residue; d: D form. ξ: configuration not given here. ξαMeBip(2'-Et,4'-OMe) = CCc1cc(OC)ccc1-c1ccc(CC(C)(N)C(=O)O)cc1; ξαMePhe(2,6-F2) = CC(N)(Cc1c(F)cccc1F)C(=O)O; ξhhPhe = NC(CCCc1ccccc1)C(=O)O; ξαMeP = CC1(C(=O)O)CCCN1; ξαMeS = CC(N)(CO)C(=O)O; Aib = CC(C)(N)C(=O)O

Experiments:
male C57BL/6J mice = assay: Acute single dose 120-min time-course experiment, in vivo glucose reduction; set-up: unit not given here; conditions: i.p, n = 8, Mean ± SEM
Protocol: Acute single dose 120-min time-course experiments were carried out in male C57BL/6J or db/db mice, age 8-12 weeks, bred in-house. The animals were housed in groups of 6 animals per cage, for a week, in order to habituate them to vivarium conditions (25+4° C., 60-65% relative humidity, 12:12 h light: dark cycle, with lights on at 7.30 am). All the animal experiments were carried out according to the internationally valid guidelines following approval by the ‘Zydus Research Center animal ethical committee’.
[…] On the day of experiment, food was withdrawn from all the cages, water was given ad-libitum and were kept for overnight fasting. Vehicle (normal saline)/test/standard compounds were administered intraperitoneally (i.p.) or orally, on a body weight basis. Soon after the 0 min. blood collection from each animal, the subsequent blood collections were done at 30, 60 and 120 or upto 240 min., via retro-orbital route, under light ether anesthesia (Chen, D., et al., Diabetes Obesity Metabolism, 2005, 7, 307. Kim, J. G. et al., Diabetes, 2003, 52, 751).
The blood samples were centrifuged and the separated serum was immediately subjected for the glucose estimation. The serum for insulin estimation was stored at −70° C. until used for the insulin estimation. The glucose estimation was carried out with DPEC-GOD/POD method (Ranbaxy Fine Chemicals Limited, Diagnostic division, India), using Spectramax-190, in 96-microwell plate reader (Molecular devices Corporation, Sunnyvale, Calif.). […] The AUC and BCAUC obtained from graphs were analyzed for one way ANOVA, followed by Dunnett's post test, using Graph Pad prism software. Furthermore, the insulin estimation was carried out using rat/mouse insulin ELISA kit (Linco research, Missouri USA).

[1] = Stability in simulated intestinal fluid; type: in vitro ADME; conditions: 2 μM, 37° C.; for % degradation in 24 h when incubated with simulated intestinal fluid: pH 7.5, 24 h
Protocol: (§1) Reactions were terminated by the addition of TFA/H2O ([…], 10% (v/v)). […] The column was equilibrated with TFA/H20, at a flow rate of 1 mL/min. […] The absorbance was monitored at 206 nm using UV detector and peaks were collected manually prior to ESI-MS analysis.

[2] = test system: RIN5F (Rat Insulinoma) cells; assay: In vitro glucose-dependent insulin secretion (RIN5F cell assay); type: cell-based; conditions: 16.7-mM glucose load, n = 3, mean ± S.D.
Protocol: RIN5F (Rat Insulinoma) cells were cultured in RPMI 1640 medium supplemented with sodium pyruvate (1 mM) HEPES and Glucose (4.5 g/L) in a humidified incubator (5% CO2), at 37° C. After trypsinization, RIN5F cells were seeded at a concentration of 0.2×10^6 cells per well, in 12 well plates. The cells were grown overnight to 80% confluence and insulin secretion experiments were performed as follows (Montrose-Rafizadeh C., et al., Mol. Cell. Endo. 1997, 130, 109.; Wang, X., et al., Endocrinology 2001, 5, 1820).
The cells were washed once with PBS solution followed by 40 min. incubation in fresh Krebs-Ringer Balanced Buffer containing NaCl (115 mmol/L), KCl (4.7 mmol/L), CaCl2 (1.28 mmol/L), MgSO4.7H2O (1.2 mmol/L), KH2PO4 (1.2 mmol/L), NaHCO3 (10 mmol/L) and HEPES (25 mmol/L), containing Glucose (1.1 mM) and B.S.A (0.5%), pH 7.4. The buffer was replaced after 40 min. and the cells were incubated (37° C.) with the test peptidomimetics, at different concentration, for 30 min., both in the presence (16.7 mM) and absence (0 mM) of glucose load. The supernatant was collected and the insulin amount was measured by ultra sensitive Rat insulin ELISA kit (Crystal Chem, IL). The protein was estimated in the supernatant using Bicinchoninic Acid kit, according to the manufacturer's protocol (Sigma Aldrich, MO). The total insulin content obtained in Pico-gram (pg) was divided with the total protein (μg) in order to normalize for differences in cell density between wells.

[3] = Stability in liver microsomes; type: in vitro ADME, human; conditions: 2 μM, 37° C.; for half-life: human, microsomes, read-out: half-life (t1/2) in liver microsomes
Protocol: as §1

DPP IV enzyme = DPP IV enzyme (Homo sapiens, UniProt P27487); assay: Stability against DPP IV enzyme; type: in vitro ADME; conditions: 2 μM, 37° C.; for half-life: read-out: half-life (t1/2) with DPP-IV enzyme
DPP IV enzyme, sequence (P27487 whole entry, species assumed, the tested form may be a part): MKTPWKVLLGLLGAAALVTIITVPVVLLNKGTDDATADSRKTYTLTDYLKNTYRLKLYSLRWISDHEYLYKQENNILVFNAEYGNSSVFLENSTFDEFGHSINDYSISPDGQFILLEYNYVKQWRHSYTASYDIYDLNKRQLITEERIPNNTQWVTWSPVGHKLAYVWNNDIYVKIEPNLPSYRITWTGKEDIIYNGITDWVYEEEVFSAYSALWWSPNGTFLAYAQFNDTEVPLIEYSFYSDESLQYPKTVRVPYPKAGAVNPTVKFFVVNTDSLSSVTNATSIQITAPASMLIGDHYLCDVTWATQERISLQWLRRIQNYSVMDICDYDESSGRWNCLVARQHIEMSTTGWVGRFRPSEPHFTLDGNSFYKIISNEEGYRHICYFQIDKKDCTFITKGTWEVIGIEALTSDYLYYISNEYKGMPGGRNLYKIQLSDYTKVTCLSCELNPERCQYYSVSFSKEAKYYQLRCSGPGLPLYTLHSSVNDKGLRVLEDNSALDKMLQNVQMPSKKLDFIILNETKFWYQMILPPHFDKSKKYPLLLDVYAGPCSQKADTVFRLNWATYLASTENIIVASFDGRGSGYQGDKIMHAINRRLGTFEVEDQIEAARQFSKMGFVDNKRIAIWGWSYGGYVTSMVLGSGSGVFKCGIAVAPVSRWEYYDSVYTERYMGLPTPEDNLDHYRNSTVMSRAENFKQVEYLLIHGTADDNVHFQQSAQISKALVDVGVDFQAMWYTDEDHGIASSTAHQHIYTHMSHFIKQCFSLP
Protocol: (§2) Different peptidomimetics (final concentration 2 μM) were incubated with either DPP IV (1:25 mU) or pooled human plasma (7.5 μL) or simulated gastric fluid (pH 1.5; composition HCl, NaCl and Pepsin) or simulated intestinal fluid (pH 7.5) or human liver microsomes, for 0, 2, 4, 6, 12 and 24 h (37° C.; 50 mM triethanolamine-HCl buffer; pH 7.8). […] Reactions were terminated by the addition of TFA/H2O ([…], 10% (v/v)). The reaction products were then applied to a Vydac C18 analytical column (4.6×250-mm) and the major degradation fragment separated from intact peptidomimetic. The column was equilibrated with TFA/H20, at a flow rate of 1 mL/min. Using 0.1% (v/v) TFA in 70% acetonitrile/H2O, the concentration of acetonitrile in the eluting solvent was raised from 0% to 28% over 10 min and from 28% to 42% over 30 min. The absorbance was monitored at 206 nm using UV detector and peaks were collected manually prior to ESI-MS analysis. Area under the curve was measured for test peptidomimetics and their metabolites and percentage degradation were calculated at each time point over a period of 24 h.

[4] = Stability in simulated gastric fluid; type: in vitro ADME; conditions: 2 μM, 37° C.; for % degradation in 24 h when incubated with simulated gastric fluid: pH 1.5, 24 h
Protocol: as §1

[5] = Stability in human plasma; type: in vitro ADME; conditions: 2 μM, 37° C.; for half-life: human, plasma, read-out: half-life (t1/2) in human plasma
Protocol: as §2

Row | SMILES | half-life (t1/2) in simulated intestinal fluid ([1]; pH 7.5) | % degradation in 24 h when incubated with simulated intestinal fluid [1] [%] | Insulin secretion ([2]; 0.1 nM test compd.) [pg/µg/h] | Insulin secretion ([2]; 1 nM test compd.) [pg/µg/h] | Insulin secretion ([2]; 10 nM test compd.) [pg/µg/h] | % degradation in 24 h when incubated with liver microsomes [3] [%] | half-life [3] [h] | % degradation in 24 h when incubated with DPP-IV enzyme (DPP IV enzyme) [%] | half-life (DPP IV enzyme) [h] | half-life (t1/2) in simulated gastric fluid ([4]; pH 1.5) | % degradation in 24 h when incubated with simulated gastric fluid [4] [%] | % degradation in 24 h when incubated with human plasma [5] [%] | half-life [5] [h] | other results
1 | CCc1cc(OC)ccc1-c1ccc(CC(C)(NC(=O)C(C)(CC(=O)O)NC(=O)[C@H](CO)NC(=O)[C@@H](NC(=O)C(C)(Cc2c(F)cccc2F)NC(=O)[C@@H](NC(=O)CNC(=O)[C@H](CCC(N)=O)NC(=O)C(C)(C)NC(=O)[C@H](Cc2c[nH]cn2)NC(=O)[C@@H](N)C(C)C)[C@@H](C)O)[C@@H](C)O)C(=O)NC(C)(CCCc2ccccc2)C(N)=O)cc1 (single isomer, unassigned) [Seq. ID. No. 199, VH-Aib-QGT-(αMe-2,6-diFPhe)-TS-(αMe-Asp)-(αMe-Bip(OMe))-(αMe-APPA)] |  |  |  |  |  |  |  |  |  |  |  |  |  | blood glucose level (in vivo glucose reduction) (male C57BL/6J mice; 30 nM/kg, 0 min): 180 ± 1.2; blood glucose level (in vivo glucose reduction) (male C57BL/6J mice; 30 nM/kg, 30 min): 116 ± 3.2; blood glucose level (in vivo glucose reduction) (male C57BL/6J mice; 30 nM/kg, 60 min): 116 ± 3.1; blood glucose level (in vivo glucose reduction) (male C57BL/6J mice; 30 nM/kg, 120 min): 118 ± 1.8
2 | CCc1cc(OC)ccc1-c1ccc(CC(C)(NC(=O)[C@H](CC(=O)O)NC(=O)C(C)(CO)NC(=O)[C@@H](NC(=O)C(C)(Cc2c(F)cccc2F)NC(=O)[C@@H](NC(=O)CNC(=O)[C@H](CCC(=O)O)NC(=O)C2(C)CCCN2C(=O)[C@H](Cc2c[nH]cn2)NC(=O)[C@@H](N)C(C)C)[C@@H](C)O)[C@@H](C)O)C(=O)NC(CCCc2ccccc2)C(N)=O)cc1 (stereo partly drawn) [Seq. ID. No. 56, VH-(αMe-Pro)-EGT-(αMe-2,6-diFPhe)-T-(αMe-Ser)-D-(αMe-Bip(OMe))-(APPA)] (H-VH[ξαMeP]EGT[ξαMePhe(2,6-F2)]T[ξαMeS]D[ξαMeBip(2'-Et,4'-OMe)][ξhhPhe]-NH2) |  |  |  |  |  |  |  |  |  |  |  |  |  | blood glucose level (in vivo glucose reduction) (male C57BL/6J mice; 5 nM/kg, 0 min): 179 ± 5.0; blood glucose level (in vivo glucose reduction) (male C57BL/6J mice; 5 nM/kg, 30 min): 120 ± 3.6; blood glucose level (in vivo glucose reduction) (male C57BL/6J mice; 5 nM/kg, 60 min): 129 ± 2.0; blood glucose level (in vivo glucose reduction) (male C57BL/6J mice; 5 nM/kg, 120 min): 148 ± 1.7
3 | CCc1cc(OC)ccc1-c1ccc(CC(C)(NC(=O)[C@H](CC(=O)O)NC(=O)[C@H](CO)NC(=O)[C@@H](NC(=O)C(C)(Cc2c(F)cccc2F)NC(=O)[C@@H](NC(=O)CNC(=O)[C@H](CCC(N)=O)NC(=O)C2(C)CCCN2C(=O)[C@H](Cc2c[nH]cn2)NC(=O)[C@@H](N)C(C)C)[C@@H](C)O)[C@@H](C)O)C(=O)NC(CCCc2ccccc2)C(N)=O)cc1 (some centres unmarked) [compound 28] (H-VH[ξαMeP]QGT[ξαMePhe(2,6-F2)]TSD[ξαMeBip(2'-Et,4'-OMe)][ξhhPhe]-NH2) | (6) h | 40 | 11.8 ± 0.50 | 14.9 ± 0.11 | 27.9 ± 0.31 | 78 | 1 | 70 | 9 | (8) h | 14 | 71 | 8 | 
4 | CCc1cc(OC)ccc1-c1ccc(CC(C)(NC(=O)[C@H](CC(=O)O)NC(=O)[C@H](CO)NC(=O)[C@@H](NC(=O)C(C)(Cc2c(F)cccc2F)NC(=O)[C@@H](NC(=O)CNC(=O)[C@H](CCC(=O)O)NC(=O)C(C)(C)NC(=O)[C@H](Cc2c[nH]cn2)NC(=O)[C@@H](N)C(C)C)[C@@H](C)O)[C@@H](C)O)C(=O)NC(CCCc2ccccc2)C(N)=O)cc1 (some centres unmarked) [compound 31] (H-VH[Aib]EGT[ξαMePhe(2,6-F2)]TSD[ξαMeBip(2'-Et,4'-OMe)][ξhhPhe]-NH2) | (6) h | 41 | 12.7 ± 0.21 | 15.8 ± 0.33 | 29.3 ± 0.19 | 77 | 1 | 86 | 9 | (8) h | 15 | 70 | 8 | 
5 | CCc1cc(OC)ccc1-c1ccc(CC(C)(NC(=O)[C@H](CC(=O)O)NC(=O)C(C)(CO)NC(=O)[C@@H](NC(=O)[C@H](Cc2ccccc2)NC(=O)[C@@H](NC(=O)CNC(=O)[C@H](CCC(=O)O)NC(=O)[C@H](C)NC(=O)[C@H](Cc2c[nH]cn2)NC(=O)[C@@H](N)C(C)C)[C@@H](C)O)[C@@H](C)O)C(=O)NC(CCCc2ccccc2)C(N)=O)cc1 (some centres unmarked) [compound 38] (H-VHAEGTFT[ξαMeS]D[ξαMeBip(2'-Et,4'-OMe)][ξhhPhe]-NH2) |  | 00 | 13.1 ± 0.11 | 14.9 ± 0.17 | 28.8 ± 0.44 | 31 |  | 00 | > 24 |  | 00 | 00 | > 24 | half-life ([1]; simulated gi fluid, pH 7.5, read-out: half-life (t1/2) in simulated intestinal fluid): > 24 h; half-life (t1/2) in liver microsomes [3]: (5) h; half-life ([4]; simulated gi fluid, pH 1.5, read-out: half-life (t1/2) in simulated gastric fluid): > 24 h
